Measured values taken from patent US10227331B2 (priority 2015, dated 2019).
pIC50: −log10 of the molar value.

Legend:
[1] = system: P. aeruginosa expressing IMP-1, efflux− (MB9799); test: Efflux: concentration of MBL inhibitor which restores susceptibility to imipenem; assay type: cell-based, Pseudomonas aeruginosa; settings: imipenem at 2 μg/mL, in the presence of a class A, C, D serine β-lactamase inhibitor closely related to relebactam
Description: (§1) The strain background is Pseudomonas aeruginosa PAO1.

[2] = target: VIM-1 (Pseudomonas aeruginosa (strain ATCC 15692 / DSM 22644 / CIP 104116 / JCM 14847 / LMG 12228 / 1C / PRS 101 / PAO1), UniProt A0A0F7KYQ8); test: biochemical; settings: CCF2-FA substrate, 2 hours at 25° C
How it was run: (§2)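 Inhibitor was mixed with the metallo-β-lactamase and CCF2-FA. After 2 hours at 25° C, fluorescence of the coumarin–fluorescein cephalosporin substrate was read. IC50 was calculated with a 4-parameter fit.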

[3] = target: NDM-1 (Klebsiella pneumoniae, UniProt C7C422); test: biochemical; assay type: biochemical; settings: CCF2-FA substrate, 2 hours at 25° C; read-out: NDM-1 IC50
Chain of NDM-1 (C7C422 whole entry, looked up, species assumed): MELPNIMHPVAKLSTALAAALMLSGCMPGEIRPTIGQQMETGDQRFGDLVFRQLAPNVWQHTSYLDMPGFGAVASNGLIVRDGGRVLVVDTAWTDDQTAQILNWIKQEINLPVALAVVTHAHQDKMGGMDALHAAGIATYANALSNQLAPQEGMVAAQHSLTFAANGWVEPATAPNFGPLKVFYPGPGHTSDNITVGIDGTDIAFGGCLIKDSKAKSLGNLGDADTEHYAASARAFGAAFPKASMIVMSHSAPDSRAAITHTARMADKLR
How it was run: as §2

[4] = target: IMP-1 (Serratia marcescens, UniProt P52699); test: biochemical; assay type: biochemical; settings: CCF2-FA substrate, 2 hours at 25° C; read-out: IMP-1 IC50
Chain of IMP-1 (P52699 whole entry, looked up, species assumed): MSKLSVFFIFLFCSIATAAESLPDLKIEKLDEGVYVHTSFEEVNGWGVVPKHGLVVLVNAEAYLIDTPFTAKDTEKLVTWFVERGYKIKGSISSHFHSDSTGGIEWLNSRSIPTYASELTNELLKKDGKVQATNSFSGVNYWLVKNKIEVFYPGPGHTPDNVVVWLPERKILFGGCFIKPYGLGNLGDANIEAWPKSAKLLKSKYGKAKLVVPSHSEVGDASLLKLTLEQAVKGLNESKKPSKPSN
How it was run: as §2

[5] = system: Escherichia coli expressing NDM-1 (CLB30005, CLB30016); assay type: cell-based; settings: with imipenem 1 μg/ml; 95% inhibition of bacterial growth
How it was run: (§3)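 Colonies from overnight 35 °C blood-agar cultures were suspended in saline, diluted 1:100 into 1.1× CAMHB and exposed to test compound with or without imipenem at 1 μg/ml. After 22–24 h at 35 °C, absorbance was read to find the concentration restoring imipenem susceptibility.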

[6] = system: Klebsiella pneumoniae expressing VIM-1 (IHMA599644); assay type: cell-based; settings: with imipenem 1 μg/ml; 95% inhibition of bacterial growth
How it was run: as §3

[7] = system: Serratia marcescens expressing IMP-1 (CL5741); assay type: cell-based; settings: with imipenem 1 μg/ml; 95% inhibition of bacterial growth
How it was run: as §3

[8] = system: P. aeruginosa expressing IMP-1, efflux+ (MB9798); assay type: cell-based, Pseudomonas aeruginosa; settings: for P. aeruginosa expressing IMP-1, efflux+ (MB9798) MITC95: imipenem at 2 μg/mL, in the presence of a class A, C, D serine β-lactamase inhibitor closely related to relebactam; for Efflux ratio: ratio MITC95 PA_9798/MITC95 PA_9799
Description: as §1

SMILES | P. aeruginosa expressing IMP-1, efflux− (MB9799) MITC95 [1] [µM] | pIC50 [2] | pIC50 [3] | pIC50 [4] | Escherichia coli expressing NDM-1 (CLB30016) MITC95 [5] [µM] | Klebsiella pneumoniae expressing VIM-1 (IHMA599644) MITC95 [6] [µM] | Serratia marcescens expressing IMP-1 (CL5741) MITC95 [7] [µM] | P. aeruginosa expressing IMP-1, efflux+ (MB9798) MITC95 [8] [µM] | Efflux ratio [8]
CC(=O)N1CCC(S(=O)(=O)c2ccc(-c3cccc4nc(N)[nH]c34)c(-c3nn[nH]n3)c2S(N)(=O)=O)CC1 [Example 44, 6-(1-acetylpiperidin-4-ylsulfonyl)-3-(2-amino-3H-benzo[d]imidazol-4-yl)-2-(2H-tetrazol-5-yl)benzenesulfonamide] | 3.125 | 9.52 | 9.35 | 8.70 | 6.25 | 25 | 6.25 | 100 | 32.00
CS(=O)(=O)N1CCC(S(=O)(=O)c2ccc(-c3cccc4nc(N)[nH]c34)c(-c3nn[nH]n3)c2S(N)(=O)=O)CC1 [Example 45, 3-(2-amino-3H-benzo[d]imidazol-4-yl)-6-(1-(methylsulfonyl)piperidin-4-ylsulfonyl)-2-(2H-tetrazol-5-yl)benzenesulfonamide] | 3.125 | 9.87 | 9.54 | 8.77 | 25 | 6.25 | 6.25 | 50 | 16.00
CCOC(=O)N1CCC(S(=O)(=O)c2ccc(-c3cccc4nc(N)[nH]c34)c(-c3nn[nH]n3)c2S(N)(=O)=O)CC1 [Example 46, ethyl 4-(4-(2-amino-3H-benzo[d]imidazol-4-yl)-2-sulfamoyl-3-(2H-tetrazol-5-yl)phenylsulfonyl)piperidine-1-carboxylate] | 3.125 | 9.42 | 9.35 | 8.67 | 6.25 | 25 | 25 | 200 | 64.00
Nc1nc2cccc(-c3ccc(S(=O)(=O)C4CCN(CCO)CC4)c(S(N)(=O)=O)c3-c3nn[nH]n3)c2[nH]1 [Example 47, 3-(2-amino-3H-benzo[d]imidazol-4-yl)-6-(1-(2-hydroxyethyl)piperidin-4-ylsulfonyl)-2-(2H-tetrazol-5-yl)benzenesulfonamide] | 1.563 | 9.44 | 9.67 | 9.07 | 1.563 | 3.125 | 3.125 | 6.25 | 4.00
NCCN1CCC(S(=O)(=O)c2ccc(-c3cccc4nc(N)[nH]c34)c(-c3nn[nH]n3)c2S(N)(=O)=O)CC1 [Example 48, 3-(2-amino-3H-benzo[d]imidazol-4-yl)-6-(1-(2-aminoethyl)piperidin-4-ylsulfonyl)-2-(2H-tetrazol-5-yl)benzenesulfonamide] | 1.563 | 9.39 | 9.41 | 8.64 | 1.563 | 3.125 | 3.125 | 3.125 | 2.00
NC(=O)N1CCC(S(=O)(=O)c2ccc(-c3cccc4nc(N)[nH]c34)c(-c3nn[nH]n3)c2S(N)(=O)=O)CC1 [Example 49, 4-(4-(2-amino-3H-benzo[d]imidazol-4-yl)-2-sulfamoyl-3-(2H-tetrazol-5-yl)phenylsulfonyl)piperidine-1-carboxamide] | 3.125 | 9.51 | 9.56 | 8.86 | 6.25 | 6.25 | 6.25 | 12.5 | 4.00
NC(=O)CN1CC(S(=O)(=O)c2ccc(-c3cccc4[nH]c(N)nc34)c(-c3nn[nH]n3)c2S(N)(=O)=O)C1 [Example 50, 2-(3-(4-(2-amino-1H-benzo[d]imidazol-4-yl)-2-sulfamoyl-3-(2H-tetrazol-5-yl)phenylsulfonyl)azetidin-1-yl)acetamide] | 3.125 | 9.23 | 9.62 | 8.84 | 3.125 | 6.25 | 3.125 | 3.125 | 1.00
NCCN1CC(S(=O)(=O)c2ccc(-c3cccc4[nH]c(N)nc34)c(-c3nn[nH]n3)c2S(N)(=O)=O)C1 [Example 51, 3-(2-amino-1H-benzo[d]imidazol-4-yl)-6-(1-(2-aminoethyl)azetidin-3-ylsulfonyl)-2-(2H-tetrazol-5-yl)benzenesulfonamide] | 0.7813 | 9.37 | 9.84 | 8.88 | 0.3906 | 1.563 | 0.7813 | 0.7813 | 1.00
CN1CC(S(=O)(=O)c2ccc(-c3cccc4[nH]c(N)nc34)c(-c3nn[nH]n3)c2S(N)(=O)=O)C1 [Example 52, 3-(2-amino-1H-benzo[d]imidazol-4-yl)-6-(1-methylazetidin-3-ylsulfonyl)-2-(2H-tetrazol-5-yl)benzenesulfonamide] | 1.563 | 9.20 | 9.65 | 8.88 | 0.3906 | 3.125 | 1.563 | 6.25 | 4.00
Nc1nc2c(-c3ccc(S(=O)(=O)C4CN(CCO)C4)c(S(N)(=O)=O)c3-c3nn[nH]n3)cccc2[nH]1 [Example 53, 3-(2-amino-1H-benzo[d]imidazol-4-yl)-6-(1-(2-hydroxyethyl)azetidin-3-ylsulfonyl)-2-(2H-tetrazol-5-yl)benzenesulfonamide] | 6.25 | 8.81 | 9.34 | 8.21 | 12.5 | 12.5 | 6.25 | 12.5 | 2.00
CC(=O)N1CC(S(=O)(=O)c2ccc(-c3cccc4nc(N)[nH]c34)c(-c3nn[nH]n3)c2S(N)(=O)=O)C1 [Example 54, 6-(1-acetylazetidin-3-ylsulfonyl)-3-(2-amino-3H-benzo[d]imidazol-4-yl)-2-(2H-tetrazol-5-yl)benzenesulfonamide] | 3.125 | 9.36 | 9.75 | 8.62 | 6.25 | 12.5 | 6.25 | 50 | 16.00
